Columns and labels:
[1] = tested on: AVEFA (wild oat); assay: Pre-plant incorporated (PPI) herbicidal activity, cool season; type: in vivo, Avena fatua; conditions: for PPI activity GR80, AVEFA: pre-plant incorporated, lowest tested rate with 80% or greater inhibition, about 14 days; for Percent inhibition AVEFA: weed, PPI application
Description: (§1) In another set of tests, the pre-plant incorporated (PPI) activity of compounds of this invention was evaluated on the same species as for the pre-emergence tests described above. In the PPI tests the following procedure, designed to simulate PPI application, was used.
(§2) A pre-prepared topsoil mixture (described above) was placed in a pot and compacted to a depth of 1.0 to 1.25 cm from the top of the pot. Seeds of each of several monocotyledonous and dicotyledonous annual plant species were placed on top of the soil. A sufficient quantity of soil to cover the seeds and level fill the pot was weighed into an open container. A known amount of the test compound was dissolved or suspended in an organic solvent and applied by spraying to this cover soil. The cover soil was thoroughly mixed to distribute the test compound throughout the cover soil, and was then applied as a cover layer over the seeds. Untreated soil was used as a cover layer for control pots. After treatment the plants were placed in a greenhouse where they received 0.64 cm of overhead irrigation. All subsequent watering consisted of a light overhead mist and/or subirrigation as needed for germination and growth. Tables 9 and 10 below relate to warm season plant species which were placed after pre-emergence treatment in a greenhouse with a 30/21° C. day/night temperature regime. Tables 11 and 12 below relates to cool season plant species placed after pre-emergence treatment in a greenhouse or growth chamber with an 18/13° C. day/night temperature regime. Only the compounds of Examples 1, 6, 8, 11, 13 and 15-20 were included in PPI tests.
(§3) Approximately 14 days after planting and treating, the plants were observed and herbicidal efficacy recorded as percent inhibition by comparison with untreated plants.

[2] = tested on: oilseed rape (BRSNS); assay: Selectivity test, PPI, cool season crop; type: in vivo, Brassica napus; conditions: PPI application
Description: as §2, §3
Additional pre-emergence and PPI tests were conducted by the procedures described above, on warm and cool season weed species in the presence of crop species, to assess herbicidal selectivity. Crop species included in warm season tests were corn (Zea mays, ZEAMX), rice (Oryza sativa, ORYSA) and soybean (Glycine max, GLYMX). Crop species included in cool season tests were wheat (Triticum aestivum, TRZAW), barley (Hordeunm vulgare, HORVX) and oilseed rape (Brassica napus, BRSNS).
Tables 15 and 16 relate to pre-emergence and PPI tests respectively on warm season species. Table 17 relates to pre-emergence tests on cool season species.

[3] = tested on: LOLMG (annual ryegrass); assay: Pre-plant incorporated (PPI) herbicidal activity, cool season; type: in vivo, Lolium multiflorum; conditions: for PPI activity GR80, LOLMG: pre-plant incorporated, lowest tested rate with 80% or greater inhibition, about 14 days; for Percent inhibition LOLMG: weed, PPI application
Description: as §1, §2, §3

[4] = tested on: BRAPP (broadleaf signalgrass); assay: Pre-emergence herbicidal activity, warm season; type: in vivo, Brachiaria platyphylla; conditions: GR80 = lowest tested rate (300, 100, 30, 10 g/ha) with 80% or greater inhibition; approx. 14 days after treating; 30/21° C.
Method in brief: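 Activity is expressed as the rate giving 80% inhibition, with 300, 100, 30 and 10 g/ha typically tested. An asterisk marks activity short of 80% at the top rate. Warm-season grasses were held at 30/21 °C; cool-season blackgrass and wild buckwheat at 18/13 °C; scoring at about 14 days.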

[5] = tested on: BROTE (downy brome); assay: Pre-plant incorporated (PPI) herbicidal activity, cool season; type: in vivo, Bromus tectorum; conditions: for PPI activity GR80, BROTE: pre-plant incorporated, lowest tested rate with 80% or greater inhibition, about 14 days; for Percent inhibition BROTE: weed, PPI application
Description: as §1, §2, §3

Compound	PPI activity GR80, AVEFA [1]	Percent inhibition AVEFA ([1]; 10 g/ha)	Percent inhibition AVEFA ([1]; 30 g/ha)	Percent inhibition AVEFA ([1]; 100 g/ha)	Percent inhibition AVEFA ([1]; 300 g/ha)	Percent inhibition AVEFA ([1]; 900 g/ha)	Percent inhibition BRSNS ([2]; 10 g/ha)	Percent inhibition BRSNS ([2]; 30 g/ha)	Percent inhibition BRSNS ([2]; 100 g/ha)	Percent inhibition BRSNS ([2]; 300 g/ha)	Percent inhibition BRSNS ([2]; 900 g/ha)	PPI activity GR80, LOLMG [3]	Percent inhibition LOLMG ([3]; 10 g/ha)	Percent inhibition LOLMG ([3]; 30 g/ha)	Percent inhibition LOLMG ([3]; 100 g/ha)	Percent inhibition LOLMG ([3]; 300 g/ha)	Percent inhibition LOLMG ([3]; 900 g/ha)	Pre-emergence activity (GR80) BRAPP [4]	PPI activity GR80, BROTE [5]	Percent inhibition BROTE ([5]; 10 g/ha)	also measured
C=C(CC(F)(F)S(=O)(=O)c1ncn(C(=O)N(CC)CC)n1)C[Si](C)(C)C [Example 20]	300 g/ha	0%	0%	0%	0%	60%	0%	20%	20%	60%	95%	* (activity observed, at least at highest rate, but <80% inhibition)	0%	30%	60%	85%	75%	300 g/ha	300 g/ha	0%	Percent inhibition BROTE ([5]; 30 g/ha): 0%; Percent inhibition BROTE ([5]; 100 g/ha): 0%; Percent inhibition BROTE ([5]; 300 g/ha): 40%; Percent inhibition BROTE ([5]; 900 g/ha): 50%
CCN(CC)C(=O)n1cnc(S(=O)(=O)C(F)(F)C(F)F)n1 [Example 16]	300 g/ha	0%	0%	0%	80%	90%	0%	0%	0%	30%	75%	300 g/ha	45%	35%	90%	95%	100%	300 g/ha	300 g/ha	0%	Percent inhibition BROTE ([5]; 30 g/ha): 0%; Percent inhibition BROTE ([5]; 100 g/ha): 35%; Percent inhibition BROTE ([5]; 300 g/ha): 40%; Percent inhibition BROTE ([5]; 900 g/ha): 90%
CCN(CC)C(=O)n1cnc(S(=O)(=O)C(F)(F)SCCOC)n1 [Example 13]	[empty]	0%	0%	0%	50%	90%	0%	0%	0%	70%	30%	* (activity observed, at least at highest rate, but <80% inhibition)	20%	60%	70%	100%	100%	300 g/ha	* (activity observed, at least at highest rate, but <80% inhibition)	0%	Percent inhibition BROTE ([5]; 30 g/ha): 0%; Percent inhibition BROTE ([5]; 100 g/ha): 10%; Percent inhibition BROTE ([5]; 300 g/ha): 20%; Percent inhibition BROTE ([5]; 900 g/ha): 85%
